Where two headings read alike, the source gives them in different places.
Key:
[1] = Pharmacokinetics in patients after a single dose; assay type: in vivo, human; conditions: for AUC(0-inf) / AUC(0-t) / Cmax / Tmax / Vd/F / half-life / MRT last / MRT inf: human, serum, oral; for AUC(0-inf) / AUC(0-t) / Cmax / Tmax / Vd/F / half-life / MRT last / MRT inf / CL/F: single dose; for MRT last: read-out: MRT0→t; for MRT inf: read-out: MRT0→∞
Text: Additional File 5: Table S3. Mean pharmacokinetic parameters of patients after a single dose in each dosage group

[2] = test system: relapsed or refractory B-cell malignancies; assay: Phase 1 dose escalation: efficacy (ORR, DCR, PFS) in patients; assay type: in vivo, human
Procedure: Patients ≥ 18 years old with refractory or relapsed B-cell malignancies were enrolled from November, 2017 to completion of the trial in November, 2019. Inclusion and exclusion criteria are listed in Additional file 2 and baseline patient characteristics in Additional file 3: Table S2.
During dose escalation, patients received YY-20394 tablets q.d. at dosages of 20, 40, 80, 140 or 200 mg. The maximum tolerated dose (MTD), dose escalation phase and dose-limiting toxicity (DLT) as well as hematological toxicity classifications are described in Additional file 4. The primary endpoints were safety, tolerability and the MTD of YY-20394. Secondary endpoints were PK parameters and efficacy. Response criteria followed the revised International Research Working Group (IRWG) for non-Hodgkin lymphomas (NHL), and the International Working Group on Chronic Lymphocytic Leukemia (IWCLL) criteria for CLL [8]. Efficacy determinations were the objective response rate (ORR), disease control rate (DCR), complete remission (CR), partial remission (PR), stable disease (SD), progressive disease (PD) and progression-free survival (PFS).

[3] = 10 FL patients, 9/10, 95% CI 71.4, 100.0
[4] = number of patients of 25 evaluable

COc1ncc(-c2nc(N3CCOCC3)nc3c(CN4CCC(C(C)(C)O)CC4)cc(F)cc23)cc1NS(C)(=O)=O [YY-20394, N-[5-[6-fluoro-8-[[4-(1-hydroxy-1-methylethyl)-1-piperidinyl]methyl]-2-(4-morpholinyl)-4-quinazolinyl]-2-methoxy-3-pyridinyl]-methanesulfonamide]
AUC(0-inf) ([1]; 20 mg, mean): 1390 ng·h/mL
AUC(0-t) ([1]; 20 mg, mean): 1140 ng·h/mL
Cmax ([1]; 20 mg, mean): 39.3 ng/mL
Tmax ([1]; 20 mg, mean): 4 h
Vd/F ([1]; 20 mg, mean): 576 L
half-life ([1]; 20 mg, mean): 27.8 h
MRT last ([1]; 20 mg, mean): 25 h
MRT inf ([1]; 20 mg, mean): 40.7 h
AUC(0-inf) ([1]; 40 mg, mean ± SD): 2410 ng·h/mL
AUC(0-t) ([1]; 40 mg, mean ± SD): 2270 ng·h/mL
Cmax ([1]; 40 mg, mean ± SD): 148 ± 24.5 ng/mL
Tmax ([1]; 40 mg, mean ± SD): 1.8 ± 0.3 h
Vd/F ([1]; 40 mg, mean ± SD): 445 ± 100 L
half-life ([1]; 40 mg, mean ± SD): 17.8 ± 1.4 h
MRT last ([1]; 40 mg, mean ± SD): 18 ± 0.9 h
MRT inf ([1]; 40 mg, mean ± SD): 22.4 ± 1.3 h
AUC(0-inf) ([1]; 80 mg, mean ± SD): 6880 ng·h/mL
AUC(0-t) ([1]; 80 mg, mean ± SD): 6510 ng·h/mL
Cmax ([1]; 80 mg, mean ± SD): 347 ± 90.2 ng/mL
Tmax ([1]; 80 mg, mean ± SD): 2.7 ± 1.5 h
Vd/F ([1]; 80 mg, mean ± SD): 302 ± 70.4 L
half-life ([1]; 80 mg, mean ± SD): 17.2 ± 1.8 h
MRT last ([1]; 80 mg, mean ± SD): 18.6 ± 1.9 h
MRT inf ([1]; 80 mg, mean ± SD): 22.7 ± 3.1 h
AUC(0-inf) ([1]; 140 mg, mean ± SD): 15300 ng·h/mL
AUC(0-t) ([1]; 140 mg, mean ± SD): 14200 ng·h/mL
Cmax ([1]; 140 mg, mean ± SD): 854 ± 289 ng/mL
Tmax ([1]; 140 mg, mean ± SD): 2 ± 1.7 h
Vd/F ([1]; 140 mg, mean ± SD): 236 ± 37.6 L
half-life ([1]; 140 mg, mean ± SD): 18 ± 3.6 h
MRT last ([1]; 140 mg, mean ± SD): 19.1 ± 3.6 h
MRT inf ([1]; 140 mg, mean ± SD): 24.8 ± 6.5 h
AUC(0-inf) ([1]; 200 mg, mean ± SD): 15000 ng·h/mL
AUC(0-t) ([1]; 200 mg, mean ± SD): 13100 ng·h/mL
Cmax ([1]; 200 mg, mean ± SD): 641 ± 378 ng/mL
Tmax ([1]; 200 mg, mean ± SD): 9.4 ± 10.1 h
Vd/F ([1]; 200 mg, mean ± SD): 318 ± 92.2 L
half-life ([1]; 200 mg, mean ± SD): 16 ± 1.9 h
MRT last ([1]; 200 mg, mean ± SD): 21.5 ± 6.4 h
MRT inf ([1]; 200 mg, mean ± SD): 21.8 ± 4 h
in vivo exposure (Cmax, AUC0-t, AUC0-∞) versus dose ([1]; single administrations, 20 to 140 mg): increased proportionally in a dose-dependent manner
CL/F ([1]; 20 mg, mean): 14.4 L/h
CL/F ([1]; 40 mg, mean ± SD): 17.6 ± 4.8 L/h
CL/F ([1]; 80 mg, mean ± SD): 12.2 ± 2.6 L/h
CL/F ([1]; 140 mg, mean ± SD): 9.2 ± 0.5 L/h
CL/F ([1]; 200 mg, mean ± SD): 13.6 ± 2.4 L/h
longest treatment duration ([2]; 40 mg, CLL/SLL patient): 36 months
median PFS time, follicular lymphoma ([2]; 10 FL patients): 300 days
DCR, follicular lymphoma [2, 3]: 90%
ORR, follicular lymphoma [2, 3]: 90%
overall ORR ([2]; 25 evaluable patients, 16/25, 95% CI 45.2, 82.8%): 64.0%
disease control rate (DCR) ([2]; 25 evaluable patients, 18/25, 95% CI 54.4, 89.6%): 72.0%
median PFS time ([2]; all evaluable patients combined): 255 days
CR, follicular lymphoma ([2]; number of FL patients, 80 mg): 3
PD, follicular lymphoma ([2]; number of FL patients, 200 mg): 1
PR, follicular lymphoma ([2]; number of FL patients, 1/40 mg and 5/80 mg): 6
complete remission (CR) [2, 4]: 5
partial remission (PR) [2, 4]: 11
progressive disease (PD) [2, 4]: 7
durable response ([2]; one PR patient with CLL/SLL, 40 mg q.d.): around 36 months

Reference: article PMC8381505, “Phase 1 clinical trial of the PI3Kδ inhibitor YY-20394 in patients with B-cell hematological malignancies” (Journal of Hematology & Oncology, 2021)
